In patent EP4745135A1 (Gluetacs Therapeutics (Shanghai) Co., Ltd., priority 2023, dated 2025):

Key:
[1] = system: GSPT1; assay: Western blot, degradation of substrate protein in hPBMCs; assay type: cell-based, Human
[2] = target: T1, IKZF1 (Homo sapiens, UniProt Q13422+Q96SW2); assay: as above; assay type: cell-based
T1 construct: effects of the compounds of the present disclosure on the expression of target proteins in cells; endogenous in cells; host or cells: human PBMCs (Milecell Biotechnologies)

[3] = target: T2, IKZF2 (Homo sapiens, UniProt Q96SW2+Q9UKS7); assay: as above; assay type: cell-based
T2 construct: effects of the compounds of the present disclosure on the expression of target proteins in cells; endogenous in cells; host or cells: human PBMCs (Milecell Biotechnologies)

[4] = target: T3, IKZF3 (Homo sapiens, UniProt Q96SW2+Q9UKT9); assay: as above; assay type: cell-based
T3 construct: effects of the compounds of the present disclosure on the expression of target proteins in cells; endogenous in cells; host or cells: human PBMCs (Milecell Biotechnologies)

[5] = target: T4, CK1α (Homo sapiens, UniProt P48729+Q96SW2); assay: as above; assay type: cell-based
T4 construct: effects of the compounds of the present disclosure on the expression of target proteins in cells; endogenous in cells; host or cells: human PBMCs (Milecell Biotechnologies)

[6] = target: T5, WEE1 (Homo sapiens, UniProt P30291+Q96SW2); assay: as above; assay type: cell-based
T5 construct: effects of the compounds of the present disclosure on the expression of target proteins in cells; endogenous in cells; host or cells: human PBMCs (Milecell Biotechnologies)

[7] = target: T6, human Cereblon WT GST-tagged protein (Homo sapiens, UniProt Q96SW2); assay: CRBN-binding affinity, HTRF (CEREBLON BINDING kit); details: for inhibition at 0.5 µM: read-out: Inhibition Rate at 0.5 µM (%); for inhibition at 2 µM: read-out: Inhibition Rate at 2 µM (%); for IC50: CRBN binding, HTRF, 3 hours at room temperature, read-out: HTRF IC50
T6 construct: purchased CISBIO 64BDCRBNPEH

[8] = Western blot, 24 hours of compound treatment, compounds tested at 50 nM and 500 nM (concentration for the table not stated)
[9] = 24 hours treatment, compounds at 50 nM and 500 nM (concentration behind the class not stated)

T4 sequence (P48729 whole entry): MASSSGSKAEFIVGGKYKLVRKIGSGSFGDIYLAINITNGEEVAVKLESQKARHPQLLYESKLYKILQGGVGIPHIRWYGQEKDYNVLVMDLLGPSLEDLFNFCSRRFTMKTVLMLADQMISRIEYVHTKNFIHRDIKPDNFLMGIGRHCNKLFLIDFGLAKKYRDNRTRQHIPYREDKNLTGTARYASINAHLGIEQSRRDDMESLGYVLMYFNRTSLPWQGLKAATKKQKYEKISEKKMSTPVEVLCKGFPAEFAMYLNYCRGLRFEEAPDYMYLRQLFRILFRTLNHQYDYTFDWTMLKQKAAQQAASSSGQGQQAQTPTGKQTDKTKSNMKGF
T4 sequence (Q96SW2 whole entry): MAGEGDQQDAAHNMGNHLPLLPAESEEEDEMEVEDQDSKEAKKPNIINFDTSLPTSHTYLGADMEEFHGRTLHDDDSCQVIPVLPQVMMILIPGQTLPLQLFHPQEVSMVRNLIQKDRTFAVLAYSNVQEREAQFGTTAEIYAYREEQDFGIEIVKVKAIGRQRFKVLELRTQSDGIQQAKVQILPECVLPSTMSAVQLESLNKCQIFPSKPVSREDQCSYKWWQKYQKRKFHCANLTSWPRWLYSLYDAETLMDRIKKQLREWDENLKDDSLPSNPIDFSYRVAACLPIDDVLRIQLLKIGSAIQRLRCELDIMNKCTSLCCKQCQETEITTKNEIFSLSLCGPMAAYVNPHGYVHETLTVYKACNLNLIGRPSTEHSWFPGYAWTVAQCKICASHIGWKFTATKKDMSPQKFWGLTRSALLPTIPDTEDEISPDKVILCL
T4 sequence (Q16531 whole entry partner): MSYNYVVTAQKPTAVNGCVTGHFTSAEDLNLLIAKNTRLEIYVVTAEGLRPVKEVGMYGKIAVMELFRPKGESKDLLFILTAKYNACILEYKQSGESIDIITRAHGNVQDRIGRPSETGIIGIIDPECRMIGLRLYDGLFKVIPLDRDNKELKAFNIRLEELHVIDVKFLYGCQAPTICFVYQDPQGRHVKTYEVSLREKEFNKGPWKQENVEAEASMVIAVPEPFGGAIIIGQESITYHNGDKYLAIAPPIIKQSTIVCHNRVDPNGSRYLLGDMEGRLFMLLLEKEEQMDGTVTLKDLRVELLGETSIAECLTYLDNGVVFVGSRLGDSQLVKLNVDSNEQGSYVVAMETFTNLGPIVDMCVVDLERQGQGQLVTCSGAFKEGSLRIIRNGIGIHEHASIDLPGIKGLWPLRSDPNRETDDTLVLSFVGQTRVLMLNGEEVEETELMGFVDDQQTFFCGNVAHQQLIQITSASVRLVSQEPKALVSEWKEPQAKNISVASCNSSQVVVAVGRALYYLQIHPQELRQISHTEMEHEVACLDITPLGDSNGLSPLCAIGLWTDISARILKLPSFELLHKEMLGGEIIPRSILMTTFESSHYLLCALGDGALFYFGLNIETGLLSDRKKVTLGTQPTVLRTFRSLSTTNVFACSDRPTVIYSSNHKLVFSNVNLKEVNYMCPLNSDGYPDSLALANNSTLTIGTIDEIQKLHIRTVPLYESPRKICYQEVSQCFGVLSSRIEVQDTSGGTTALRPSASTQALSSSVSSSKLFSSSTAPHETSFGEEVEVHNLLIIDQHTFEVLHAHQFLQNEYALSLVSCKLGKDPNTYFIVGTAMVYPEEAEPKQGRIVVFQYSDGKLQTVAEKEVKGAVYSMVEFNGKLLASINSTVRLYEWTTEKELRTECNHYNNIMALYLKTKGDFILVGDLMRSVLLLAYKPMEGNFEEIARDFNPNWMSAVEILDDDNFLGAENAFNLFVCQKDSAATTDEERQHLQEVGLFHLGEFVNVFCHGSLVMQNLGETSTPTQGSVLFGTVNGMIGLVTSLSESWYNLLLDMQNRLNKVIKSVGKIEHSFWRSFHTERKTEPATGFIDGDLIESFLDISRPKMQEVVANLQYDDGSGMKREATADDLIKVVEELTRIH
T1 sequence (Q13422 whole entry): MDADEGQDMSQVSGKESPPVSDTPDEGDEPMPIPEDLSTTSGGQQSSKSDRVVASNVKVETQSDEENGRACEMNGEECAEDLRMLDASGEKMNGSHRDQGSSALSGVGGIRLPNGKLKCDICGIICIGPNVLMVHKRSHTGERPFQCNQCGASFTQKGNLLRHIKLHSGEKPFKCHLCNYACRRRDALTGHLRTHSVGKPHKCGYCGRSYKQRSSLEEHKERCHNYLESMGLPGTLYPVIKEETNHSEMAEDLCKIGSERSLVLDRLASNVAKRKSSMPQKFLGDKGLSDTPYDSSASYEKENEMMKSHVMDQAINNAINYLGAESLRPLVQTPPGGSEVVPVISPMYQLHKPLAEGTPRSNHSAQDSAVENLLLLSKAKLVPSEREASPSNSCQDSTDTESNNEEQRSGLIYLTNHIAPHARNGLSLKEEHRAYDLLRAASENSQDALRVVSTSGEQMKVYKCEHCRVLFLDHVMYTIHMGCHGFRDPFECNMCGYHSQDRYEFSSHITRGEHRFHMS
T1 sequence (Q96SW2 whole entry): as the sequence (Q96SW2 whole entry) above
T1 sequence (Q16531 whole entry partner): as the sequence (Q16531 whole entry partner) above
T5 sequence (P30291 whole entry): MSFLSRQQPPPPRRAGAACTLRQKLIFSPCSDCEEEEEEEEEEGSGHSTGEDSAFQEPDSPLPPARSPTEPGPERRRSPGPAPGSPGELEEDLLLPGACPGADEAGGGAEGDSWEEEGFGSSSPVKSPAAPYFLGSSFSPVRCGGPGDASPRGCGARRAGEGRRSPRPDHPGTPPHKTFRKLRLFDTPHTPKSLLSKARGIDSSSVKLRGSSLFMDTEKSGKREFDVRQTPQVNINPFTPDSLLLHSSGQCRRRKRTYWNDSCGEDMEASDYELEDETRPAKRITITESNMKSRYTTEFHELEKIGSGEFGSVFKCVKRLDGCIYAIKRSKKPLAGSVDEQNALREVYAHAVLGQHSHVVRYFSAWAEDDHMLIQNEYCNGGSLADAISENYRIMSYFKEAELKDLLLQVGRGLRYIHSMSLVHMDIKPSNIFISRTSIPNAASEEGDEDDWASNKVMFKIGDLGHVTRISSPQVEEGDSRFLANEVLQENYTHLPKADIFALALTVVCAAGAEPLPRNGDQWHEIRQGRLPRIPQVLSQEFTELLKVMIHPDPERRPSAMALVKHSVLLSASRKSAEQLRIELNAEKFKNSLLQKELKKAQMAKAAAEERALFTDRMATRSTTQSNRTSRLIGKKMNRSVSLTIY
T5 sequence (Q96SW2 whole entry): as the sequence (Q96SW2 whole entry) above
T5 sequence (Q16531 whole entry partner): as the sequence (Q16531 whole entry partner) above
T2 sequence (Q9UKS7 whole entry): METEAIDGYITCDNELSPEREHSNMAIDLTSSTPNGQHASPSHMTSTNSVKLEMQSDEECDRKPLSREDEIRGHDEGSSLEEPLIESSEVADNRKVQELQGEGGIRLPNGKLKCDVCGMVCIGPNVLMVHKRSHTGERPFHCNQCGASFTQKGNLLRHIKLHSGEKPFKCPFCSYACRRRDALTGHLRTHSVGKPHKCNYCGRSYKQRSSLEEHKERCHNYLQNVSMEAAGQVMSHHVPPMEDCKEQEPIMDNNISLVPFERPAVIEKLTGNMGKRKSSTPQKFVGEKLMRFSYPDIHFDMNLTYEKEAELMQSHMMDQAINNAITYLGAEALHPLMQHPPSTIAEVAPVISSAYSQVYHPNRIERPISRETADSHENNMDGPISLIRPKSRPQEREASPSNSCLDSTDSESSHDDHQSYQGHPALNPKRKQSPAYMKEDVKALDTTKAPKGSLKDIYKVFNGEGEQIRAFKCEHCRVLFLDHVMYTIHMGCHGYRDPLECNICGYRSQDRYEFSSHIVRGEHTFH
T2 sequence (Q96SW2 whole entry): as the sequence (Q96SW2 whole entry) above
T2 sequence (Q16531 whole entry partner): as the sequence (Q16531 whole entry partner) above
T3 sequence (Q9UKT9 whole entry): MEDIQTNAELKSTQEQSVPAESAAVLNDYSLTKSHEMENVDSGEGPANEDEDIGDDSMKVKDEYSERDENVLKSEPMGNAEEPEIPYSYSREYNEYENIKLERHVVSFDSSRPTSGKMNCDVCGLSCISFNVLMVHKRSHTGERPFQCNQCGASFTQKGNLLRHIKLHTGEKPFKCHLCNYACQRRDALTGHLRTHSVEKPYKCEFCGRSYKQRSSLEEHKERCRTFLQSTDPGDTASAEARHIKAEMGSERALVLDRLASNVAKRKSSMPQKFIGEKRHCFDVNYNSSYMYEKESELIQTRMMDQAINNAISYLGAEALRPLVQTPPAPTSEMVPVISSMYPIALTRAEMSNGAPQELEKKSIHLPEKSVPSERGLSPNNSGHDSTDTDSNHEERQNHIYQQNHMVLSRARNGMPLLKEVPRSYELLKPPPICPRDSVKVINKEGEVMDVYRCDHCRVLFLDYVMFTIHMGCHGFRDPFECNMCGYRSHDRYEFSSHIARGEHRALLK
T3 sequence (Q96SW2 whole entry): as the sequence (Q96SW2 whole entry) above
T3 sequence (Q16531 whole entry partner): as the sequence (Q16531 whole entry partner) above
T6 sequence (Q96SW2 whole entry): as the sequence (Q96SW2 whole entry) above

| SMILES | GSPT1 substrate protein remaining % [1, 8] | IKZF 1 substrate protein remaining % [2, 8] | IKZF2 substrate protein remaining % [3, 8] | IKZF3 substrate protein remaining % [4, 8] | CK1α substrate protein remaining % [5, 8] | Wee1 substrate protein remaining % [6, 8] | inhibition at 0.5 µM [7] [%] | inhibition at 2 µM [7] [%] | GSPT1 substrate protein remaining % [1, 9] | IKZF 1 substrate protein remaining % [2, 9] | IKZF2 substrate protein remaining % [3, 9] | IKZF3 substrate protein remaining % [4, 9] | CK1α substrate protein remaining % [5, 9] | Wee1 substrate protein remaining % [6, 9] | IC50 [7] [nM] |
| --- | --- | --- | --- | --- | --- | --- | --- | --- | --- | --- | --- | --- | --- | --- | --- |
| O=C1CCC(N2Cc3c(CN4CCN(c5ccnc(Cl)c5F)CC4)cccc3C2=S)C(=O)N1 (stereo not drawn) [GT-08732, 3-(4-((4-(2-chloro-3-fluoropyridin-4-yl)piperazin-1-yl)methyl)-1-thioxoisoindolin-2-yl)piperidine-2,6-dione] | B (80%< substrate protein remaining %≤ 100%) | B (80%< substrate protein remaining %≤ 100%) | B (80%< substrate protein remaining %≤ 100%) | B (80%< substrate protein remaining %≤ 100%) | B (80%< substrate protein remaining %≤ 100%) | A (0% ≤ substrate protein remaining % ≤ 80%) | 60 to 80 | 80 to 100 |  |  |  |  |  |  |  |
| O=C1CCC(N2Cc3ccc(CN4CCN(c5cccc(Cl)c5Cl)CC4)cc3C2=S)C(=O)N1 (stereo not drawn) [GT-05033, 3-(6-((4-(2,3-dichlorophenyl)piperazin-1-yl)methyl)-1-thioxoisoindolin-2-yl)piperidine-2,6-dione] |  |  |  |  |  |  |  |  | A (0% ≤ substrate protein remaining % ≤ 80%) | B (80%< substrate protein remaining %≤ 100%) | B (80%< substrate protein remaining %≤ 100%) | A (0% ≤ substrate protein remaining % ≤ 80%) | B (80%< substrate protein remaining %≤ 100%) | B (80%< substrate protein remaining %≤ 100%) | 100 to 500 |
| Cc1ccc(N2CCN(Cc3ccc4c(c3)CN(C3CCC(=O)NC3=O)C4=S)CC2)s1 (stereo not drawn) [GT-05110, 3-(5-((4-(5-methylthiophen-2-yl)piperazin-1-yl)methyl)-1-thioxoisoindolin-2-yl)piperidine-2,6-dione] | A (0% ≤ substrate protein remaining % ≤ 80%) | B (80%< substrate protein remaining %≤ 100%) | B (80%< substrate protein remaining %≤ 100%) | B (80%< substrate protein remaining %≤ 100%) | B (80%< substrate protein remaining %≤ 100%) | B (80%< substrate protein remaining %≤ 100%) |  |  |  |  |  |  |  |  | 100 to 500 |
| O=C1CCC(N2Cc3c(CN4CCN(c5c(F)c(F)nc(F)c5F)CC4)cccc3C2=S)C(=O)N1 (stereo not drawn) [GT-08809, 3-(4-((4-(perfluoropyridin-4-yl)piperazin-1-yl)methyl)-1-thioxoisoindolin-2-yl)piperidine-2,6-dione] | A (0% ≤ substrate protein remaining % ≤ 80%) | A (0% ≤ substrate protein remaining % ≤ 80%) | A (0% ≤ substrate protein remaining % ≤ 80%) | A (0% ≤ substrate protein remaining % ≤ 80%) | B (80%< substrate protein remaining %≤ 100%) | A (0% ≤ substrate protein remaining % ≤ 80%) | 53 to 60 | 80 to 100 |  |  |  |  |  |  |  |
| Cc1nc(C2=CCN(Cc3cccc4c3CN(C3CCC(=O)NC3=O)C4=S)CC2)c2c3c(sc2n1)CCCC3 (stereo not drawn) [GT-08961, 3-(4-((4-(2-methyl-5,6,7,8-tetrahydrobenzo[4,5]thieno[2,3-d]pyrimidin-4-yl)-3,6-dihydropyridin-1(2H)-yl)methyl)-1-thioxoisoindolin-2-yl)piperidine-2,6-dione] |  |  |  |  |  |  | 40 to 53 | 80 to 100 | B (80%< substrate protein remaining %≤ 100%) | B (80%< substrate protein remaining %≤ 100%) | B (80%< substrate protein remaining %≤ 100%) | B (80%< substrate protein remaining %≤ 100%) | B (80%< substrate protein remaining %≤ 100%) | A (0% ≤ substrate protein remaining % ≤ 80%) |  |
| Cc1cscc1C1CCN(Cc2cccc3c2CN(C2CCC(=O)NC2=O)C3=S)CC1 (stereo not drawn) [GT-08309, 3-(4-((4-(4-methylthiophen-3-yl)piperidin-1-yl)methyl)-1-thioxoisoindolin-2-yl)piperidine-2,6-dione] |  |  |  |  |  |  | 53 to 60 | 80 to 100 | B (80%< substrate protein remaining %≤ 100%) | B (80%< substrate protein remaining %≤ 100%) | B (80%< substrate protein remaining %≤ 100%) | B (80%< substrate protein remaining %≤ 100%) | B (80%< substrate protein remaining %≤ 100%) | A (0% ≤ substrate protein remaining % ≤ 80%) |  |
| O=C1CCC(N2Cc3c(CN4CCN(c5ccnc(Cl)c5Cl)CC4)cccc3C2=S)C(=O)N1 (stereo not drawn) [GT-08735, 3-(4-((4-(2,3-dichloropyridin-4-yl)piperazin-1-yl)methyl)-1-thioxoisoindolin-2-yl)piperidine-2,6-dione] | B (80%< substrate protein remaining %≤ 100%) | B (80%< substrate protein remaining %≤ 100%) | B (80%< substrate protein remaining %≤ 100%) | B (80%< substrate protein remaining %≤ 100%) | B (80%< substrate protein remaining %≤ 100%) | A (0% ≤ substrate protein remaining % ≤ 80%) | 60 to 80 | 80 to 100 |  |  |  |  |  |  |  |
| O=C1CCC(N2Cc3cc(CN4CCN(c5cc(F)cc(F)c5)CC4)ccc3C2=S)C(=O)N1 (stereo not drawn) [GT-08628, 3-(5-((4-(3,5-difluorophenyl)piperazin-1-yl)methyl)-1-thioxoisoindolin-2-yl)piperidine-2,6-dione] | A (0% ≤ substrate protein remaining % ≤ 80%) | B (80%< substrate protein remaining %≤ 100%) | B (80%< substrate protein remaining %≤ 100%) | B (80%< substrate protein remaining %≤ 100%) | B (80%< substrate protein remaining %≤ 100%) | B (80%< substrate protein remaining %≤ 100%) | 53 to 60 | 80 to 100 |  |  |  |  |  |  |  |
| Cc1ccc(N2CCN(Cc3cccc4c3CN(C3CCC(=O)NC3=O)C4=S)CC2)cc1 (stereo not drawn) [GT-08499, 3-(1-thioxo-4-((4-(p-tolyl)piperazin-1-yl)methyl)isoindolin-2-yl)piperidine-2,6-dione] | A (0% ≤ substrate protein remaining % ≤ 80%) | B (80%< substrate protein remaining %≤ 100%) | A (0% ≤ substrate protein remaining % ≤ 80%) | B (80%< substrate protein remaining %≤ 100%) | B (80%< substrate protein remaining %≤ 100%) | A (0% ≤ substrate protein remaining % ≤ 80%) | 30 to 40 | 53 to 60 |  |  |  |  |  |  |  |
| O=C1CCC(N2Cc3c(CN4CCC(c5cccc(C(F)(F)F)c5)CC4)cccc3C2=S)C(=O)N1 (stereo not drawn) [GT-08599, 3-(1-thioxo-4-((4-(3-(trifluoromethyl)phenyl)piperidin-1-yl)methyl)isoindolin-2-yl)piperidine-2,6-dione] | B (80%< substrate protein remaining %≤ 100%) | B (80%< substrate protein remaining %≤ 100%) | B (80%< substrate protein remaining %≤ 100%) | B (80%< substrate protein remaining %≤ 100%) | B (80%< substrate protein remaining %≤ 100%) | A (0% ≤ substrate protein remaining % ≤ 80%) | 30 to 40 | 60 to 80 |  |  |  |  |  |  |  |
